ChEMBL document CHEMBL1132568, “Synthesis, pharmacological evaluation, and structure-activity relationship and quantitative structure-activity relationship studies on novel derivatives of 2,4-diamino-6,7-dimethoxyquinazoline alpha1-adrenoceptor antagonists” (J Med Chem, 1999)

What was measured:
D(2) dopamine receptor = D(2) dopamine receptor (Rattus norvegicus, UniProt P61169); test: Inhibitory concentration against Dopamine receptor D2 (Inactive at >1000 nM concentration)
[1] = biological target: 5-hydroxytryptamine receptor 2A (Rattus norvegicus, UniProt P14842); test: Inhibitory concentration against 5-hydroxytryptamine 2A receptor (Inactive at >1000 nM concentration)
[2] = biological target: T1, Adrenergic receptor alpha-2 (Rattus norvegicus, UniProt P22086+P19328+P22909); test: Inhibitory concentration against Alpha-2 adrenergic receptor; format: protein assay
T1 sequence (P22086 whole entry): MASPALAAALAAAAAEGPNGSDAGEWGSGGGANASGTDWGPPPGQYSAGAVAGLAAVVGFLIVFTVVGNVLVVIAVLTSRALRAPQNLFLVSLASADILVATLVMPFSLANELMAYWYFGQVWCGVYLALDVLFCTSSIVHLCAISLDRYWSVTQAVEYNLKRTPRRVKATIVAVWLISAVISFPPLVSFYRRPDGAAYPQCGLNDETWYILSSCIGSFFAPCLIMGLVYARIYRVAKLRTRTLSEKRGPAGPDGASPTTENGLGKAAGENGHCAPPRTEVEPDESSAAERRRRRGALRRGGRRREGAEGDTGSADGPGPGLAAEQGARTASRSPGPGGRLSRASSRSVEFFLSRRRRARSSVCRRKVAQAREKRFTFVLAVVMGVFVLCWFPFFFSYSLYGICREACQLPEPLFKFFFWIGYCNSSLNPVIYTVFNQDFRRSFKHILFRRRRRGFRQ
T1 sequence (P19328 whole entry): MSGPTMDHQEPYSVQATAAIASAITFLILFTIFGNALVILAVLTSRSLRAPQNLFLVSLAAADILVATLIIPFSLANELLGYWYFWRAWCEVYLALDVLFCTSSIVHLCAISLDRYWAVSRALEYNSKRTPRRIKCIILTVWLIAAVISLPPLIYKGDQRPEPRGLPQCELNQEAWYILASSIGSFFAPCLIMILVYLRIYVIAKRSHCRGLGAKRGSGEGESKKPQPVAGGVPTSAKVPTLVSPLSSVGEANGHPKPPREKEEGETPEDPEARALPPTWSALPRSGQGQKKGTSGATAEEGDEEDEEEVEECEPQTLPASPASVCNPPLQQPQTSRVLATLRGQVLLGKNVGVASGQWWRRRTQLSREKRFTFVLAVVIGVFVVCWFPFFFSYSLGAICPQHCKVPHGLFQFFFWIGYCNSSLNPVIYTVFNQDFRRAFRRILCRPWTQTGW
T1 sequence (P22909 whole entry): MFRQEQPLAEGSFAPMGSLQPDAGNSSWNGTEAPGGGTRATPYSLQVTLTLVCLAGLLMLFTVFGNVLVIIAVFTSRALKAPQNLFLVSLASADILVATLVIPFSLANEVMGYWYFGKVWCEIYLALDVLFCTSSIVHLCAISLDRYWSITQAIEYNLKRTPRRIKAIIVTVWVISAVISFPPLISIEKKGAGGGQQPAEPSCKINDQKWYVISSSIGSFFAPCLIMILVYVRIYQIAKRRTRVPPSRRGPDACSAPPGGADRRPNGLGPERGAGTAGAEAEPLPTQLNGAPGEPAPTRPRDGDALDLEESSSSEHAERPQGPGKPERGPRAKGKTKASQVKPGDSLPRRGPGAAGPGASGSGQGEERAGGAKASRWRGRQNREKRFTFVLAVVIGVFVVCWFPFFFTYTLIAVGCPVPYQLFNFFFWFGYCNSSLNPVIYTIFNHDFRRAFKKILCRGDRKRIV

[3] = biological target: T2, Adrenergic receptor alpha-1 (Rattus norvegicus, UniProt P15823+P23944+P43140); test: Inhibition of Alpha-1 adrenergic receptor in rat cortex membrane; format: cell membranes
T2 sequence (P15823 whole entry): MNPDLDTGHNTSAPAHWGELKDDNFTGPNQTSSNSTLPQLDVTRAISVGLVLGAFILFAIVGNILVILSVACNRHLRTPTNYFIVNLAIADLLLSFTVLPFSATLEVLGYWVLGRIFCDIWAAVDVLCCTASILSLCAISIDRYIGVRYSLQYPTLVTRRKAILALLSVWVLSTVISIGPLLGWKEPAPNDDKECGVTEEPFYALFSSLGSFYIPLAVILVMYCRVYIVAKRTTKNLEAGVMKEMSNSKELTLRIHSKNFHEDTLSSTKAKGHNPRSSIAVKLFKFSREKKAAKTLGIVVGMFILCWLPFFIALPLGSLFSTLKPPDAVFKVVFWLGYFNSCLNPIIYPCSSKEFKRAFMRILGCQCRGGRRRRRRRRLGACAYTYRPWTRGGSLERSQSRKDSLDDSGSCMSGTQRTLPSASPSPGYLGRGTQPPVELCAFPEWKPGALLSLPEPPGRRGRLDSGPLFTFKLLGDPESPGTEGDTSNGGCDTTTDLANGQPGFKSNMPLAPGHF
T2 sequence (P23944 whole entry): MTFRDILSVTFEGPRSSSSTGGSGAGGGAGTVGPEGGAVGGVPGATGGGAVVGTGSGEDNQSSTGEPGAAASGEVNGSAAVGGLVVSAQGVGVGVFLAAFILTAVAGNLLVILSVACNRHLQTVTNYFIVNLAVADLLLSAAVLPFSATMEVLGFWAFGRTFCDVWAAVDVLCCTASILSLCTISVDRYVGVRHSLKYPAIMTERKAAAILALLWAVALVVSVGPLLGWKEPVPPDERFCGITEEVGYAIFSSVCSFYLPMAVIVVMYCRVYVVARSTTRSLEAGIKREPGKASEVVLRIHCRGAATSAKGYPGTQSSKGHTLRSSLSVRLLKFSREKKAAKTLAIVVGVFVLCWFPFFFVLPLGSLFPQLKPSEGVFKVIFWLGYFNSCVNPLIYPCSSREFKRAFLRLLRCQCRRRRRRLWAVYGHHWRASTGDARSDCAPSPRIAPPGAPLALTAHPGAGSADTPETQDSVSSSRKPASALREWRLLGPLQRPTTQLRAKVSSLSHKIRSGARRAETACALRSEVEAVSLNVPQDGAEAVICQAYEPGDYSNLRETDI
T2 sequence (P43140 whole entry): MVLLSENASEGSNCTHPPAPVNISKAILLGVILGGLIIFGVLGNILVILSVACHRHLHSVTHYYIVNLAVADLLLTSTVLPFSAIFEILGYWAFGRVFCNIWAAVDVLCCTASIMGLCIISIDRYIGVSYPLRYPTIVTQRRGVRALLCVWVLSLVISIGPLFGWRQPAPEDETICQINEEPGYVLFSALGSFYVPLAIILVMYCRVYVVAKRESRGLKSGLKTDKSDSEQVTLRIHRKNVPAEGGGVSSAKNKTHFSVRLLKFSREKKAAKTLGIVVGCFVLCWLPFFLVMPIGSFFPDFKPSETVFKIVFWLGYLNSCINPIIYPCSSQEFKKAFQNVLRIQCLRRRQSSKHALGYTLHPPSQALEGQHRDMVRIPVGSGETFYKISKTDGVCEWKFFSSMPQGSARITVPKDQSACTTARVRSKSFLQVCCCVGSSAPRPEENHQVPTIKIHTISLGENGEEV

[4] = biological target: T3, 5-hydroxytryptamine receptor 1A (Rattus norvegicus, UniProt P19327); test: Inhibitory concentration against 5-hydroxytryptamine 1A receptor (Inactive at >1000 nM concentration)
T3 sequence (P19327 whole entry): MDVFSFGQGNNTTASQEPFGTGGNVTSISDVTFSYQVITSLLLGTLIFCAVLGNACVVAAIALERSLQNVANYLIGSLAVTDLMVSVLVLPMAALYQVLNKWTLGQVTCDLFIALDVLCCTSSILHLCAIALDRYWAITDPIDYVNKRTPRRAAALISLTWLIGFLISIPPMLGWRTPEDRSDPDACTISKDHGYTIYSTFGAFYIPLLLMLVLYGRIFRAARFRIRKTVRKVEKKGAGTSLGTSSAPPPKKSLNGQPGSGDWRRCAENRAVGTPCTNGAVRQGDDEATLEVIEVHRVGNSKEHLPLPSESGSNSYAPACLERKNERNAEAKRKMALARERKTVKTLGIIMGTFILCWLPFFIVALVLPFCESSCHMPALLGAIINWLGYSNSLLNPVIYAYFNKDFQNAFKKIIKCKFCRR

Canis familiaris [5] = test: In vivo effect on urethral contractility (UP) of dog after intravenous administration.; format: functional, Canis lupus familiaris, Urethra
Canis familiaris [6] = test: In vivo hypotensive effect(DBP) in dog after intravenous administration.; format: functional, Canis lupus familiaris
[7] = biological target: T4, Alpha-1A adrenergic receptor (Rattus norvegicus, UniProt P43140); test: The binding affinity towards Alpha-1A adrenergic receptor in the COS cell line.; format: cell-based
T4 sequence (P43140 whole entry): T2 sequence (P43140 whole entry)

Sequence of D(2) dopamine receptor (P61169 whole entry): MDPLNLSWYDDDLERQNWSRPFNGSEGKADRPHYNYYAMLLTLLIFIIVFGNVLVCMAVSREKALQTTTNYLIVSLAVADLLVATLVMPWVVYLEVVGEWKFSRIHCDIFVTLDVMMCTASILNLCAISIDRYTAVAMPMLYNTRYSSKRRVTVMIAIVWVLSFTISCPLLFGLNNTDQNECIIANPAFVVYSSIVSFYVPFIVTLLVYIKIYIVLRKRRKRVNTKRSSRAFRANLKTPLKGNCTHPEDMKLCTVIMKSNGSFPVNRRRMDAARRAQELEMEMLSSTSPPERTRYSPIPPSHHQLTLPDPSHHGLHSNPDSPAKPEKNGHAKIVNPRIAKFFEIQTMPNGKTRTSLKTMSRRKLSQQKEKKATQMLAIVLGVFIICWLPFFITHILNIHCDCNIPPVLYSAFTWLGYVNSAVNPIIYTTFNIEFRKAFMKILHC
Sequence of 5-hydroxytryptamine receptor 2A (P14842 whole entry): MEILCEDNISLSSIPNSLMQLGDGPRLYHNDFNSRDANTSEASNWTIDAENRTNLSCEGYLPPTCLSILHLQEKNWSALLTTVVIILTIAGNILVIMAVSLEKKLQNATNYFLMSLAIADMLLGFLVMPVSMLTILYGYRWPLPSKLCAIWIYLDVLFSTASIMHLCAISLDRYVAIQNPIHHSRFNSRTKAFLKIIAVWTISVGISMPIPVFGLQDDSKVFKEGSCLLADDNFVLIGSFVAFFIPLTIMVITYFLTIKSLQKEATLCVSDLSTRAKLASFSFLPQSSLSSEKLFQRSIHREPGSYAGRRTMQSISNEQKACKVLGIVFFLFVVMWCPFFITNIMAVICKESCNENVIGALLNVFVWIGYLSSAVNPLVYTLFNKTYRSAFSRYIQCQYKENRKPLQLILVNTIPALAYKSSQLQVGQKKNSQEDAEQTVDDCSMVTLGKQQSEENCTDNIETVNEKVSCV

| Compound | IC50 (D(2) dopamine receptor) | IC50 [1] | IC50 [2] | IC50 [3] | IC50 [4] | Ki [7] | ED50 (Canis familiaris [5]) | ED25 (Canis familiaris [6]) |
| --- | --- | --- | --- | --- | --- | --- | --- | --- |
| COc1cc2nc(N3CCN(C(=O)C(C)(C)Oc4ccccc4OC)CC3)nc(N)c2cc1OC | > 1 µM | > 1 µM | > 1 µM | 0.049 µM | > 1 µM | – | – | – |
| COc1cc2nc(N3CCN(C(C)=O)CC3)nc(NC(C)=O)c2cc1OC | > 1 µM | > 1 µM | > 1 µM | 5.08 µM | > 1 µM | – | – | – |
| COc1cc2nc(N3CCNCC3)nc(N)c2cc1OC | > 1 µM | > 1 µM | > 1 µM | 0.34 µM | > 1 µM | – | – | – |
| COc1cc2nc(N3CCN(C(=O)CCC(=O)c4ccccc4)CC3)nc(N)c2cc1OC | > 1 µM | > 1 µM | > 1 µM | 0.015 µM | > 1 µM | 0.00568 µM | 0.035 mg/kg | 0.132 mg/kg |
| COc1cc2nc(N3CCN(C(=O)COc4c(OC)cccc4OC)CC3)nc(N)c2cc1OC | > 1 µM | > 1 µM | > 1 µM | 0.006 µM | > 1 µM | 0.0362 µM | – | – |
| COc1cc2c(cc1OC)CN(c1nc(N)c3cc(OC)c(OC)cc3n1)CC2 | > 1 µM | > 1 µM | > 1 µM | 0.0002 µM | > 1 µM | – | – | – |
| COc1cc2nc(N[C@H](C)Cc3ccc(OC)c(S(N)(=O)=O)c3)nc(N)c2cc1OC | > 1 µM | > 1 µM | > 1 µM | 3.14 µM | > 1 µM | – | – | – |
| COc1cc2nc(N3CCN(C(=O)C(C)(C)C)CC3)nc(N)c2cc1OC | > 1 µM | > 1 µM | > 1 µM | 0.34 µM | > 1 µM | – | – | – |
| COc1cc2nc(N3CCN(C(C)=O)CC3)nc(N)c2cc1OC | > 1 µM | > 1 µM | > 1 µM | 0.045 µM | > 1 µM | – | – | – |
| COc1cc2nc(N3CCN(C(=O)C(C)(C)Oc4c(OC)cccc4C(C)C)CC3)nc(N)c2cc1OC | > 1 µM | > 1 µM | > 1 µM | 1.18 µM | > 1 µM | – | – | – |

Continued, in another order:

| IC50 (D(2) dopamine receptor) | IC50 [1] | IC50 [2] | IC50 [3] | IC50 [4] | Ki [7] | Compound | ED50 (Canis familiaris [5]) | ED25 (Canis familiaris [6]) |
| --- | --- | --- | --- | --- | --- | --- | --- | --- |
| > 1 µM | > 1 µM | > 1 µM | > 1 µM | > 1 µM | – | COc1cc2nc(N3CC[N+]([O-])(Cc4ccccc4)CC3)nc(N)c2cc1OC | – | – |
| > 1 µM | > 1 µM | > 1 µM | 0.085 µM | > 1 µM | – | COc1cc2nc(N(C)CCC(c3ccccc3)c3ccccc3)nc(N)c2cc1OC | – | – |
| > 1 µM | > 1 µM | > 1 µM | 0.0016 µM | > 1 µM | – | COc1cc2nc(N3CCc4c(ccc5ccccc45)C3)nc(N)c2cc1OC | – | – |
| > 1 µM | > 1 µM | > 1 µM | 0.0032 µM | > 1 µM | – | COc1cc2nc(N3CCN(C(=O)C(c4ccccc4)c4ccccc4)CC3)nc(N)c2cc1OC | – | – |
| > 1 µM | > 1 µM | > 1 µM | 0.0041 µM | > 1 µM | – | COc1cc2nc(N3CCc4ccccc4C3)nc(N)c2cc1OC | – | – |
| > 1 µM | > 1 µM | > 1 µM | 0.07 µM | > 1 µM | – | COc1cc2nc(N(C)Cc3ccccc3)nc(N)c2cc1OC | – | – |
| > 1 µM | > 1 µM | > 1 µM | 0.04 µM | > 1 µM | – | COc1cc2nc(N3CCN(C(c4ccccc4)c4ccccc4)CC3)nc(N)c2cc1OC | – | – |
| > 1 µM | > 1 µM | > 1 µM | 0.032 µM | > 1 µM | – | COc1cc2nc(N3CCN(Cc4ccccc4)CC3)nc(N)c2cc1OC | – | – |
| > 1 µM | > 1 µM | > 1 µM | 0.0046 µM | > 1 µM | – | COc1cc2nc(N3CCN(C(=O)c4ccccc4)CC3)nc(N)c2cc1OC | – | – |
| > 1 µM | > 1 µM | > 1 µM | 0.111 µM | > 1 µM | – | COc1cc2nc(N3CCN(OCc4ccccc4)CC3)nc(N)c2cc1OC | – | – |
| > 1 µM | > 1 µM | > 1 µM | 0.259 µM | > 1 µM | – | COc1cc2nc(N3CCC(c4ccccc4)(c4ccccc4)CC3)nc(N)c2cc1OC | – | – |
